This note sets out measurements from US20190365741A1, “COMBINATIONS OF THE CDK4/6 INHIBITOR LEE011 AND THE MEK1/2 INHIBITOR TRAMETINIB, OPTIONALLY FURTHER COMPRISING THE PI3K INHIBITOR BYL719 TO TREAT CANCER” (Novartis AG, priority 2015, published 2019).

Broadly, the IC50 is the concentration that inhibits the measured activity by half.

Holding throughout (assay type): cell-based
Assay [1] deals with 15 colorectal cancer cell lines. Nature of the assay: Cell proliferation, summary over the cell line panel. As to conditions: single agent, across the cell lines in which growth was inhibited. How it is done:
(§1) The compounds were dissolved in 100% DMSO (Sigma, Catalog number D2650) at concentrations of 20 mM and stored at −20° C. until use.
(§2) Colorectal cancer cell lines used for this study were obtained, cultured and processed from commercial vendors ATCC, CellBank Australia, DMSZ, ECACC, and HSRRB (Table 1). All cell line media were supplemented with 10% FBS (HyClone, Catalog number SH30071.03).
(§3) The debris counts were subtracted from raw nuclei counts.
The compound's effect on cell proliferation was calculated from the cell counts of the treatments relative to the cell counts of the negative control (DMSO), in FIG. 1 and FIG. 3 denoted as ‘Normalized cell count’ (=‘xnorm’) on the y-axis. […] The model input were inhibition values per drug dose: […]
(§4) (Boston Bioproducts, Catalog number BM-220).

Assay [2] relates to HCT-116. The experiment in a line: Cell proliferation (cell count by microscopy), single agents and combinations. To be noted: Homo sapiens; HCT-116, 72 h, concentration giving 50% of cell counts relative to DMSO. The protocol: as §1, §2
(§5) Cell lines were cultured in 37° C. and 5% CO2 incubator and expanded in T-75 flasks. In all cases cells were thawed from frozen stocks, expanded through≥1 passage using 1:3 dilutions, counted and assessed for viability using a ViCell counter (Beckman-Coulter) prior to plating. […] All cell lines were determined to be free of mycoplasma contamination as determined by a PCR detection methodology performed at Idexx Radil (Columbia, Mo., USA) and correctly identified by detection of a panel of SNPs.
as §3
(§6) The compound's effect on cell proliferation was calculated from the cell counts of the treatments relative to the cell counts of the negative control (DMSO), in FIG. 1 and FIG. 3 denoted as ‘Normalized cell count’ (=‘xnorm’) on the y-axis. […] The model input were inhibition values per drug dose:
(§7) I=1−xnorm • I: inhibition • xnorm: normalized cell count (median of three replicates)
(§8) To favor combination effects at high inhibition the residuals were weighted with the observed inhibition at the same dose point. The overall combination score C of a drug combination is the sum of the weighted residuals over all concentrations:
(§9) C=ΣCone (Idata*(Idata−Imodel)) • Idata: measured inhibition Imodel: inhibition according to HSA null hypothesis
(§10) Robust combination z-scores (zC) were calculated as the ratio of the treatments' combination scores C and the median absolute deviation (mad) of non-interacting combinations:
(§11) zC=C/mad(Czero) • Czero: combination scores of non-interacting combinations zC is an indicator for the strength of the combination with:
(§12) In order to assess the effect of the triple combination all individual compounds, all three pair wise combinations, and the triple combination were tested in the same experiment.
as §4

Assay [3] has as its system SW480. The description is as above. As to conditions: Homo sapiens; SW480, 72 h, concentration giving 50% of cell counts relative to DMSO. How it is done:
as §1, §2, §5, §3, §6, §7, §8, §9, §10, §11, §12, §4

In assay [4] the test system is LIM2551. The assay is described as above. As to conditions: LIM2551, 72 h, concentration giving 50% of cell counts relative to DMSO. The protocol: as §1, §2, §5, §3, §6, §7, §8, §9, §10, §11, §12, §4
Assay [5] deals with NCI-H508. The assay is described as above. To be noted: Homo sapiens; NCI-H508, 72 h, concentration giving 50% of cell counts relative to DMSO. How it is done: as §1, §2, §5, §3, §6, §7, §8, §9, §10, §11, §12, §4
Assay [6] relates to COLO-205. The description is as above. As to conditions: Homo sapiens; COLO-205, 72 h, concentration giving 50% of cell counts relative to DMSO. The protocol: as §1, §2, §5, §3, §6, §7, §8, §9, §10, §11, §12, §4
For assay [7], the system named is SW837. Described as above. To be noted: Homo sapiens; SW837, 72 h, concentration giving 50% of cell counts relative to DMSO. How it is done:
as §1, §2, §5, §3, §6, §7, §8, §9, §10, §11, §12, §4

Assay [8] concerns COLO-320. Described as above. As to conditions: Homo sapiens; COLO-320, 72 h, concentration giving 50% of cell counts relative to DMSO. How it is done:
as §1, §2, §5, §3, §6, §7, §8, §9, §10, §11, §12, §4

Assay [9] has as its system GP2d. Described as above. To be noted: 72 h, concentration giving 50% of cell counts relative to DMSO. The protocol: as §1, §2, §5, §3, §6, §7, §8, §9, §10, §11, §12, §4
Assay [10] deals with HT-29. Described as above. To be noted: Homo sapiens; HT-29, 72 h, concentration giving 50% of cell counts relative to DMSO. The protocol: as §1, §2, §5, §3, §6, §7, §8, §9, §10, §11, §12, §4
The subject of assay [11] is DLD-1. Described as above. To be noted: Homo sapiens; DLD-1, 72 h, concentration giving 50% of cell counts relative to DMSO. The protocol: as §1, §2, §5, §3, §6, §7, §8, §9, §10, §11, §12, §4
For assay [12], the system named is RKO. Described as above. As to conditions: Homo sapiens, 72 h, concentration giving 50% of cell counts relative to DMSO. How it is done: as §1, §2, §5, §3, §6, §7, §8, §9, §10, §11, §12, §4
Assay [13] has as its system LoVo. The assay is described as above. To be noted: Homo sapiens, 96 h, concentration giving 50% of cell counts relative to DMSO. How it is done: as §1, §2, §5, §3, §6, §7, §8, §9, §10, §11, §12, §4
Assay [14] deals with OUMS-23. The assay is described as above. To be noted: OUMS-23, 72 h, concentration giving 50% of cell counts relative to DMSO. How it is done:
as §1, §2, §5, §3, §6, §7, §8, §9, §10, §11, §12, §4

The test system of assay [15] is LS411N. The description is as above. To be noted: Homo sapiens, LS-411N, 72 h, concentration giving 50% of cell counts relative to DMSO. The protocol: as §1, §2, §5, §3, §6, §7, §8, §9, §10, §11, §12, §4
Assay [16] concerns LS-180. The assay is described as above. To be noted: Homo sapiens, LS180; LS-180, 72 h, concentration giving 50% of cell counts relative to DMSO. How it is done: as §1, §2, §5, §3, §6, §7, §8, §9, §10, §11, §12, §4

“Also recorded” adds a separate entry of the source.

For the compound `CC(=O)Nc1cccc(-n2c(=O)n(C3CC3)c(=O)c3c(Nc4ccc(I)cc4F)n(C)c(=O)c(C)c32)c1` [Trametinib, N-{3-[3-cyclopropyl-5-(2-fluoro-4-iodo-phenylamino)6,8-dimethyl-2,4,7-trioxo-3,4,6,7-tetrahydro-2H-pyrido[4,3-d]pyrimidin-1-yl]phenyl}acetamide], the “IC50 values, magnitude in words” value in [1] was “nanomolar to sub-micromolar”. For the same compound, the IC50 stood at 0.038 µM in [2]; 0.055 µM in assay [3]; 0.005 µM in assay [4]; 0.007 µM in assay [5]; 0.004 µM in [6]; 0.051 µM in [7]. Besides, the half-inhibitory concentration (IC50) in assay [8] is above 0.3 µM; in assay [9] it was above 0.3 µM; in assay [10] it was 0.004 µM; in assay [11] it was 0.153 µM; in assay [12], 0.021 µM; in [13] it was 0.007 µM. Further, the results for the concentration for half-maximal inhibition (IC50) in assay [14], in assay [15] and in [16] were above 0.3 µM, 0.007 µM and 0.018 µM, respectively.
On to `CN(C)C(=O)c1cc2cnc(Nc3ccc(N4CCNCC4)cn3)nc2n1C1CCCC1` [LEE011, 7-Cyclopentyl-2-(5-piperazin-1-yl-pyridin-2-ylamino)-7H-pyrrolo[2,3-d]pyrimidine-6-carboxylic acid dimethylamide], for which the “IC50 values, magnitude in words” value in assay [1] is listed as “mostly micromolar; also recorded: sub-micromolar to micromolar”. In addition, the IC50 in assay [2] is 4.5 µM; in [3], 1.6 µM; in assay [4], 1.3 µM; in assay [5] it was 0.7 µM; in assay [6], 1.1 µM; in assay [7] it was above 10 µM. Moreover, the IC50 worked out at 2.8 µM in [8]; 4.5 µM in [9]; 0.8 µM in assay [10]; 4.1 µM in assay [11]; 1.5 µM in assay [12]; 0.8 µM in [13]. Besides, the 50% inhibitory concentration (IC50) in assay [14] is above 10 µM; in assay [15], 2.1 µM; in [16] it was 1.8 µM.
On to `Cc1nc(NC(=O)N2CCC[C@H]2C(N)=O)sc1-c1ccnc(C(C)(C)C(F)(F)F)c1` [BYL719, (S)-Pyrrolidine-1,2-dicarboxylic acid 2-amide 1-({4-methyl-5-[2-(2,2,2-trifluoro-1,1-dimethyl-ethyl)-pyridin-4-yl]-thiazol-2-yl}-amide)], for which, in assay [1], the “IC50 values, magnitude in words” value is given as “mostly micromolar”. The 50% inhibitory concentration (IC50) is 9.8 µM in assay [2]; above 10 µM in assay [3]; 2.3 µM in assay [4]; 0.5 µM in assay [5]; above 10 µM in assay [6]; above 10 µM in assay [7]. The IC50 in [8] was 8.3 µM; in assay [9], 0.5 µM; in [10] it was 2.7 µM; in assay [11], above 10 µM; in [12] it was 3.9 µM; in assay [13], above 10 µM. The IC50 in [14], in assay [15] and in assay [16] was above 10 µM throughout.
